US12281080B2, “Quinoline-based compounds and methods of inhibiting CDK8/19” (University of South Carolina, priority 2018, dated 2025)

Experiments:
[1] = target: DAPK2 (Homo sapiens (Human), UniProt Q9UIK4); assay: KINOMEscan scanMAX; assay type: binding; conditions: 2000 nM; read-out: Percent Control
[2] = target: MST3 (STK24) (Homo sapiens (Human), UniProt Q9Y6E0); assay: KINOMEscan scanMAX; assay type: binding; conditions: 2000 nM; read-out: Percent Control
[3] = target: PIM1 (Homo sapiens (Human), UniProt P11309); assay: KINOMEscan scanMAX; assay type: binding; conditions: 2000 nM; read-out: Percent Control
[4] = target: PDGFRA (Homo sapiens (Human), UniProt P16234); assay: KINOMEscan scanMAX; assay type: binding; conditions: 2000 nM; read-out: Percent Control
[5] = target: CAMK1D (Homo sapiens (Human), UniProt Q8IU85); assay: KINOMEscan scanMAX; assay type: binding; conditions: 2000 nM; read-out: Percent Control
[6] = target: HASPIN (Homo sapiens (Human), UniProt Q8TF76); assay: DiscoverX Kd assay
[7] = target: CAMKK2 (Homo sapiens (Human), UniProt Q96RR4); assay: KINOMEscan scanMAX; assay type: binding; conditions: 2000 nM; read-out: Percent Control
[8] = target: SRMS (Homo sapiens (Human), UniProt Q9H3Y6); assay: KINOMEscan scanMAX; assay type: binding; conditions: 2000 nM; read-out: Percent Control
[9] = target: RIPK4 (Homo sapiens (Human), UniProt P57078); assay: KINOMEscan scanMAX; assay type: binding; conditions: 2000 nM; read-out: Percent Control
[10] = target: FLT3 (Homo sapiens (Human), UniProt P36888); assay: KINOMEscan scanMAX; assay type: binding; conditions: 2000 nM; read-out: Percent Control
[11] = target: ZAK (Homo sapiens (Human), UniProt Q9NYL2); assay: KINOMEscan scanMAX; assay type: binding; conditions: 2000 nM; read-out: Percent Control
[12] = target: ASK1 (MAP3K5) (Homo sapiens (Human), UniProt Q99683); assay: KINOMEscan scanMAX; assay type: binding; conditions: 2000 nM; read-out: Percent Control
[13] = target: MAP4K2 (Homo sapiens (Human), UniProt Q12851); assay: KINOMEscan scanMAX; assay type: binding; conditions: 2000 nM; read-out: Percent Control
[14] = target: RSK4(Kin.Dom.2-C-terminal) (RPS6KA6) (Homo sapiens (Human), UniProt Q9UK32); assay: KINOMEscan scanMAX; assay type: binding; conditions: 2000 nM; read-out: Percent Control
[15] = target: SYK (Homo sapiens (Human), UniProt P43405); assay: KINOMEscan scanMAX; assay type: binding; conditions: 2000 nM; read-out: Percent Control
[16] = target: PIM2 (Homo sapiens (Human), UniProt Q9P1W9); assay: KINOMEscan scanMAX; assay type: binding; conditions: 2000 nM; read-out: Percent Control
[17] = target: p38-beta (MAPK11) (Homo sapiens (Human), UniProt Q15759); assay: KINOMEscan scanMAX; assay type: binding; conditions: 2000 nM; read-out: Percent Control
[18] = target: KIT-autoinhibited (Homo sapiens (Human), UniProt P10721); assay: KINOMEscan scanMAX; assay type: binding; conditions: 2000 nM; read-out: Percent Control
[19] = target: PLK2 (Homo sapiens (Human), UniProt Q9NYY3); assay: KINOMEscan scanMAX; assay type: binding; conditions: 2000 nM; read-out: Percent Control
[20] = target: CDK8 in complex with Cyclin C (Homo sapiens (Human), UniProt P49336); assay: LanthaScreen Eu Kinase Binding Assay
Text: The binding of the tracer to the kinase is detected using a europium-labeled anti-tag antibody, which binds to the kinase of interest. […] The binding of an inhibitor to the kinase competes for binding with the tracer, resulting in a loss of FRET.

[21] = target: FLT1 (Homo sapiens (Human), UniProt P17948); assay: KINOMEscan scanMAX; assay type: binding; conditions: 2000 nM; read-out: Percent Control
[22] = target: RET(V804M) (Homo sapiens (Human), UniProt P07949, V804M); assay: KINOMEscan scanMAX; assay type: binding; conditions: 2000 nM; read-out: Percent Control
[23] = target: MAP4K3 (Homo sapiens (Human), UniProt Q8IVH8); assay: KINOMEscan scanMAX; assay type: binding; conditions: 2000 nM; read-out: Percent Control
[24] = target: YSK1 (STK25) (Homo sapiens (Human), UniProt O00506); assay: KINOMEscan scanMAX; assay type: binding; conditions: 2000 nM; read-out: Percent Control
[25] = target: IGF1R (Homo sapiens (Human), UniProt P08069); assay: KINOMEscan scanMAX; assay type: binding; conditions: 2000 nM; read-out: Percent Control
[26] = target: VRK2 (Homo sapiens (Human), UniProt Q86Y07); assay: KINOMEscan scanMAX; assay type: binding; conditions: 2000 nM; read-out: Percent Control
[27] = target: LZK (MAP3K13) (Homo sapiens (Human), UniProt O43283); assay: KINOMEscan scanMAX; assay type: binding; conditions: 2000 nM; read-out: Percent Control
[28] = target: BRAF(V600E) (Homo sapiens (Human), UniProt P15056, V600E); assay: KINOMEscan scanMAX; assay type: binding; conditions: 2000 nM; read-out: Percent Control
[29] = target: ROS1 (Homo sapiens (Human), UniProt P08922); assay: KINOMEscan scanMAX; assay type: binding; conditions: 2000 nM; read-out: Percent Control
[30] = target: CAMK1G (Homo sapiens (Human), UniProt Q96NX5); assay: KINOMEscan scanMAX; assay type: binding; conditions: 2000 nM; read-out: Percent Control
[31] = target: MRCKB (CDC42BPB) (Homo sapiens (Human), UniProt Q9Y5S2); assay: KINOMEscan scanMAX; assay type: binding; conditions: 2000 nM; read-out: Percent Control
[32] = target: EPHA6 (Homo sapiens (Human), UniProt Q9UF33); assay: KINOMEscan scanMAX; assay type: binding; conditions: 2000 nM; read-out: Percent Control
[33] = target: MLCK (MYLK3) (Homo sapiens (Human), UniProt Q32MK0); assay: KINOMEscan scanMAX; assay type: binding; conditions: 2000 nM; read-out: Percent Control
[34] = target: MKNK1 (Homo sapiens (Human), UniProt Q9BUB5); assay: KINOMEscan scanMAX; assay type: binding; conditions: 2000 nM; read-out: Percent Control
[35] = target: PIK3CA(H1047Y) (Homo sapiens (Human), UniProt P42336, H1047Y); assay: KINOMEscan scanMAX; assay type: binding; conditions: 2000 nM; read-out: Percent Control
[36] = target: EGFR(T790M) (Homo sapiens (Human), UniProt P00533, T790M); assay: KINOMEscan scanMAX; assay type: binding; conditions: 2000 nM; read-out: Percent Control
[37] = target: SRPK2 (Homo sapiens (Human), UniProt P78362); assay: KINOMEscan scanMAX; assay type: binding; conditions: 2000 nM; read-out: Percent Control
[38] = target: MARK1 (Homo sapiens (Human), UniProt Q9P0L2); assay: KINOMEscan scanMAX; assay type: binding; conditions: 2000 nM; read-out: Percent Control

CDK8 in complex with Cyclin C, sequence (P49336 whole entry): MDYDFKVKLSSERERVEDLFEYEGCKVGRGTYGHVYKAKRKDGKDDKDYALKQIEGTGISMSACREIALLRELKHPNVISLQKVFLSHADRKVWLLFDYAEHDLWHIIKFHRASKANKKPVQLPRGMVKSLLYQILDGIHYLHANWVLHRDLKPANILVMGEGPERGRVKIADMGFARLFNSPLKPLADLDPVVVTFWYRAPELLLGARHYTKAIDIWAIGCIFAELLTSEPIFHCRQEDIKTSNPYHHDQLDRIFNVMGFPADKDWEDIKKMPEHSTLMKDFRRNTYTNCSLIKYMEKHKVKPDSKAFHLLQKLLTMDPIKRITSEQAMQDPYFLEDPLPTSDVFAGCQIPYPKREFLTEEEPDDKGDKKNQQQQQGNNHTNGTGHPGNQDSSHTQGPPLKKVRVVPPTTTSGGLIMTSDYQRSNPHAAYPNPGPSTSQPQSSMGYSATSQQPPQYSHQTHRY
CDK8 in complex with Cyclin C, sequence (P24863 whole entry partner): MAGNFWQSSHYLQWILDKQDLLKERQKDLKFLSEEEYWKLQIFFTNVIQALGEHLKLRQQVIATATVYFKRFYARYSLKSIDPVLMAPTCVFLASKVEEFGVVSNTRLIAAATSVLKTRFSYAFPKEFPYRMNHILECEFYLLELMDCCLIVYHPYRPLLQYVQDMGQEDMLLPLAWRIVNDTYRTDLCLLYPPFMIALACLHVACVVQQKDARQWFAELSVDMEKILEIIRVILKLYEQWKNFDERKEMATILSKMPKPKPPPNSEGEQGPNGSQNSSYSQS
PIM1, sequence (P11309 whole entry): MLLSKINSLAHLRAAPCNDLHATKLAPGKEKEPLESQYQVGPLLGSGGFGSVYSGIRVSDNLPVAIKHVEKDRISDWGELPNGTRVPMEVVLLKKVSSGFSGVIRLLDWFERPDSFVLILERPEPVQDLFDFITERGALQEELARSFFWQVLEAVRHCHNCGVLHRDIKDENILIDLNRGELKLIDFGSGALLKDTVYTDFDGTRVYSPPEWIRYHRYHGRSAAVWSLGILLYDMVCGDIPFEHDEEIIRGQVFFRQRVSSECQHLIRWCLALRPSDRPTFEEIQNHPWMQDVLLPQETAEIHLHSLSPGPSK
KIT-autoinhibited, sequence (P10721 544-976 limits assumed): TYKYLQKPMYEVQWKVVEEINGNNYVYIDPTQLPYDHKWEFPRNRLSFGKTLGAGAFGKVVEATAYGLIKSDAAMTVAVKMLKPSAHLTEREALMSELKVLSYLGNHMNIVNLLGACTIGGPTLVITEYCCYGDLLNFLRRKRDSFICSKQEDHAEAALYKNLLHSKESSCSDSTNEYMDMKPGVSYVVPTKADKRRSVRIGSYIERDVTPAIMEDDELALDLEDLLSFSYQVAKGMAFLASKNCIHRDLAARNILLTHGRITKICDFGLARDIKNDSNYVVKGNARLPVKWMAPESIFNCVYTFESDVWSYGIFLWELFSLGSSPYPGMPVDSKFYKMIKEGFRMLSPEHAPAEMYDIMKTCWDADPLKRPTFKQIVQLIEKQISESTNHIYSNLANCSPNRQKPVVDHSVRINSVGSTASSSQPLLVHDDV
MKNK1, sequence (Q9BUB5 whole entry): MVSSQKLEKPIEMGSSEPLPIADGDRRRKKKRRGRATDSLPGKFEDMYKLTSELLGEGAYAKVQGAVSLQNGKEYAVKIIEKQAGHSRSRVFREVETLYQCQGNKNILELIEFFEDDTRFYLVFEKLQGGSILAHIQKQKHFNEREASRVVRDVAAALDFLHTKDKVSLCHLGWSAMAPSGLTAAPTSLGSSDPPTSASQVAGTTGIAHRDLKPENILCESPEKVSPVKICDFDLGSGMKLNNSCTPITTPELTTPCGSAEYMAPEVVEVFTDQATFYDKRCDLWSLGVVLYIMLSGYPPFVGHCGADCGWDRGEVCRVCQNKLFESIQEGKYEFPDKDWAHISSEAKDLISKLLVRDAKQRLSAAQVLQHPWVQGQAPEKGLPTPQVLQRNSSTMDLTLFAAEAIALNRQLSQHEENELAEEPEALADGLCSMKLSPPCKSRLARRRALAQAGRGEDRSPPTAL
MLCK (MYLK3), sequence (Q32MK0 whole entry): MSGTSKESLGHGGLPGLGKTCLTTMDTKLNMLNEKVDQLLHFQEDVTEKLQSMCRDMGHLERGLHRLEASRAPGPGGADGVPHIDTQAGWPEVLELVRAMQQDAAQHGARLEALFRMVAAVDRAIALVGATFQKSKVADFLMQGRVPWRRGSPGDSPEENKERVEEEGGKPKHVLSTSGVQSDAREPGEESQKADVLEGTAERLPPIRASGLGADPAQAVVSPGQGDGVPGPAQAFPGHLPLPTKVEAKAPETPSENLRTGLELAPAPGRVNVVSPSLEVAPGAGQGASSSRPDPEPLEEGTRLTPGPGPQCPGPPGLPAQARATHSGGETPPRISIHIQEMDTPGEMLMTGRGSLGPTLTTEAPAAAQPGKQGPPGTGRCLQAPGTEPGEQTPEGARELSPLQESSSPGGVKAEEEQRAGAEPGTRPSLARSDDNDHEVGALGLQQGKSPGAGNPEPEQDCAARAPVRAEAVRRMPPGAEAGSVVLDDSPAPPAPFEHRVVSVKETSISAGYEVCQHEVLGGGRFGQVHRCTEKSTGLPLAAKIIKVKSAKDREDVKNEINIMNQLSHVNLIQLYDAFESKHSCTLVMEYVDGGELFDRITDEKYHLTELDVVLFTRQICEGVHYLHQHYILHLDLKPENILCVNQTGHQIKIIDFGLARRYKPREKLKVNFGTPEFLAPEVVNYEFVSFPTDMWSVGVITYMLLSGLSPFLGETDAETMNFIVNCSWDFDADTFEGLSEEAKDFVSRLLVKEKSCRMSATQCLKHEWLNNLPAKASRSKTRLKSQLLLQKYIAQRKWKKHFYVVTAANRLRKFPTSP
RSK4(Kin.Dom.2-C-terminal) (RPS6KA6), sequence (Q9UK32 426-683 limits assumed): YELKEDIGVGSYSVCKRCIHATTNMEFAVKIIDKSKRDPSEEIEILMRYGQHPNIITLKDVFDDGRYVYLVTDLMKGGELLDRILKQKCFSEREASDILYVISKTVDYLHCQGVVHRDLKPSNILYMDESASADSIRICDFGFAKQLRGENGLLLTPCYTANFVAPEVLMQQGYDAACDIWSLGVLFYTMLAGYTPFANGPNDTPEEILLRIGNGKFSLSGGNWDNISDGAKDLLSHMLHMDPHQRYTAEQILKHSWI
MST3 (STK24), sequence (Q9Y6E0 whole entry): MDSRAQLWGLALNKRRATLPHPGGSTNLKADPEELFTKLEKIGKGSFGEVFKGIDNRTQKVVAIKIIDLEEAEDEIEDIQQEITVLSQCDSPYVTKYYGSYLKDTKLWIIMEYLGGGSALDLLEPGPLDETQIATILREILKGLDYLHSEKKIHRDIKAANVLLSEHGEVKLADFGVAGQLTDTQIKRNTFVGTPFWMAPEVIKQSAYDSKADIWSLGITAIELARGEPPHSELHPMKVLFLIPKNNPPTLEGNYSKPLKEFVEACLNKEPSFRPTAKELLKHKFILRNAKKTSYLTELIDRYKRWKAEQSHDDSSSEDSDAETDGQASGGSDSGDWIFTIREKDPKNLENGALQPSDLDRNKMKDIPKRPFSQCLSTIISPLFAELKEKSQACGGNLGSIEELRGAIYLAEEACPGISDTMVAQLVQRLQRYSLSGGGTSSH
PLK2, sequence (Q9NYY3 whole entry): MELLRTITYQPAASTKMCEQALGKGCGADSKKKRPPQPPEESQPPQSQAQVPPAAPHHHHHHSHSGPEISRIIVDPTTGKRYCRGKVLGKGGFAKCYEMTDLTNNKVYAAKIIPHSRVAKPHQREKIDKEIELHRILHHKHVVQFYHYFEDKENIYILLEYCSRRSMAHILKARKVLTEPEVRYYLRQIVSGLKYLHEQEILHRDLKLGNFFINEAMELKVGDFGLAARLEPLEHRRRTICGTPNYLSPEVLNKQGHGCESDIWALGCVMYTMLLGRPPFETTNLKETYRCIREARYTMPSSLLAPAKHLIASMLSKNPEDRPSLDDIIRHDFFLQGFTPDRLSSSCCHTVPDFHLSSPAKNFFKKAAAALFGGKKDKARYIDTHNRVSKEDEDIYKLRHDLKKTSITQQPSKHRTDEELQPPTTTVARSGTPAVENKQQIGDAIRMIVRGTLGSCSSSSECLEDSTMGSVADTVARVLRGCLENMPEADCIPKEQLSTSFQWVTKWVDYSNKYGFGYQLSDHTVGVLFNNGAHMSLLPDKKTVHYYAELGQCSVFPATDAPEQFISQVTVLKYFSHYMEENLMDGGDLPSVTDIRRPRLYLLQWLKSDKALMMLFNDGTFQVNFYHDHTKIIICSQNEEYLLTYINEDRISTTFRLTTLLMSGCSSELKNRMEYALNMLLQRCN
YSK1 (STK25), sequence (O00506 whole entry): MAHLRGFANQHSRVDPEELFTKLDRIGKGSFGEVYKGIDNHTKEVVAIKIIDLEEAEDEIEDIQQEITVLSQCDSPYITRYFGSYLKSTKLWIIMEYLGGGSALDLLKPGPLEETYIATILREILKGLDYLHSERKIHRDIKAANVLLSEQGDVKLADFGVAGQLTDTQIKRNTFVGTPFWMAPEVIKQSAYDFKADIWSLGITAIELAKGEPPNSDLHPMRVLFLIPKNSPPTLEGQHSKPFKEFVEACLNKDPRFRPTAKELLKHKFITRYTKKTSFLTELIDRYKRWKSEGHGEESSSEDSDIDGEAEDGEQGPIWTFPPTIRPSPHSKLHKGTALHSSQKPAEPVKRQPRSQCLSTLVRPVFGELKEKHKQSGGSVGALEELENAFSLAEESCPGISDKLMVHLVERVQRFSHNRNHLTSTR
p38-beta (MAPK11), sequence (Q15759 whole entry): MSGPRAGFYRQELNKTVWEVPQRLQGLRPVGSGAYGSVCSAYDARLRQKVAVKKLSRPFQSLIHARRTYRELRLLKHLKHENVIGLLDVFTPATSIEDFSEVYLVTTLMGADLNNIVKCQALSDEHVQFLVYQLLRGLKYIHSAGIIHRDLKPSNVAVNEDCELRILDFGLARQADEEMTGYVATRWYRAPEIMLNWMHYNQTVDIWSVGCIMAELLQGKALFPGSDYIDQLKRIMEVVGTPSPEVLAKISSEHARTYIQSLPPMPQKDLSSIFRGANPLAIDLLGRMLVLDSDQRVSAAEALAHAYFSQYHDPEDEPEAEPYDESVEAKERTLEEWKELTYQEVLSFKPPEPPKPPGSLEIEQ

`CN1CCN(C(=O)c2ccc3cc(CCNc4ccnc5ccc(C#N)cc45)ccc3c2)CC1` [compound 6148, 4-((2-(6-(4-methylpiperazine-1-carbonyl)naphthalen-2-yl)ethyl)amino)quinoline-6-carbonitrile] was tested. Which remaining binding at 2 µM [1] did it give?
Its remaining binding at 2 µM is 100%.

And the remaining binding at 2 µM [2]?
The remaining binding at 2 µM was 100%.

What about the remaining binding at 2 µM [3] of the same molecule?
Its remaining binding at 2 µM is 62%.

And the remaining binding at 2 µM [4]?
Its remaining binding at 2 µM is 97%.

What about the remaining binding at 2 µM [5] of the same molecule?
The remaining binding at 2 µM was 80%.

What about the Kd [6] of the same molecule?
Its Kd is 1 µM.

What about the remaining binding at 2 µM [7] of the same molecule?
Its remaining binding at 2 µM is 82%.

What about the remaining binding at 2 µM [8] of the same molecule?
Its remaining binding at 2 µM is 75%.

What about the remaining binding at 2 µM [9] of the same molecule?
The remaining binding at 2 µM was 57%.

And the remaining binding at 2 µM [10]?
Its remaining binding at 2 µM is 89%.

And the remaining binding at 2 µM [11]?
Its remaining binding at 2 µM is 94%.

What about the remaining binding at 2 µM [12] of the same molecule?
The remaining binding at 2 µM was 91%.

What about the remaining binding at 2 µM [13] of the same molecule?
Its remaining binding at 2 µM is 29%.

What about the remaining binding at 2 µM [14] of the same molecule?
Its remaining binding at 2 µM is 96%.

What about the remaining binding at 2 µM [15] of the same molecule?
The remaining binding at 2 µM was 97%.

And the remaining binding at 2 µM [16]?
The remaining binding at 2 µM was 81%.

And the remaining binding at 2 µM [17]?
The remaining binding at 2 µM was 80%.

And the remaining binding at 2 µM [18]?
The remaining binding at 2 µM was 88%.

And the remaining binding at 2 µM [19]?
The remaining binding at 2 µM was 80%.

What about the IC50 [20] of the same molecule?
Its IC50 is 0.0038 µM.

What about the remaining binding at 2 µM [21] of the same molecule?
The remaining binding at 2 µM was 99%.

What about the remaining binding at 2 µM [22] of the same molecule?
The remaining binding at 2 µM was 91%.

And the remaining binding at 2 µM [23]?
The remaining binding at 2 µM was 100%.

What about the remaining binding at 2 µM [24] of the same molecule?
Its remaining binding at 2 µM is 83%.

What about the remaining binding at 2 µM [25] of the same molecule?
The remaining binding at 2 µM was 94%.

And the remaining binding at 2 µM [26]?
Its remaining binding at 2 µM is 58%.

What about the remaining binding at 2 µM [27] of the same molecule?
Its remaining binding at 2 µM is 46%.

What about the remaining binding at 2 µM [28] of the same molecule?
Its remaining binding at 2 µM is 89%.

And the remaining binding at 2 µM [29]?
Its remaining binding at 2 µM is 91%.

And the remaining binding at 2 µM [30]?
The remaining binding at 2 µM was 92%.

What about the remaining binding at 2 µM [31] of the same molecule?
The remaining binding at 2 µM was 100%.

What about the remaining binding at 2 µM [32] of the same molecule?
The remaining binding at 2 µM was 79%.

And the remaining binding at 2 µM [33]?
Its remaining binding at 2 µM is 100%.

What about the remaining binding at 2 µM [34] of the same molecule?
Its remaining binding at 2 µM is 72%.

And the remaining binding at 2 µM [35]?
The remaining binding at 2 µM was 91%.

And the remaining binding at 2 µM [36]?
Its remaining binding at 2 µM is 93%.

What about the remaining binding at 2 µM [37] of the same molecule?
Its remaining binding at 2 µM is 94%.

What about the remaining binding at 2 µM [38] of the same molecule?
The remaining binding at 2 µM was 81%.
